{"source": "paper PMC8732328", "about": "(Nature microbiology, 2021)", "data": [{"system": "all eight Enterococcus or Streptococcus strains", "assay": "MIC against eight Enterococcus or Streptococcus strains", "assay_type": "cell-based, Enterococcus and Streptococcus spp.", "values": [{"compound": "lysobactin", "activity against all eight Enterococcus or Streptococcus strains": "active"}, {"compound": "ramoplanin", "activity against all eight Enterococcus or Streptococcus strains": "active"}, {"compound": "nisin", "activity against all eight Enterococcus or Streptococcus strains": "active"}, {"compound": "CN[C@H](CC(C)C)C(=O)N[C@H]1C(=O)N[C@@H](CC(N)=O)C(=O)N[C@H]2C(=O)N[C@H]3C(=O)N[C@H](C(=O)N[C@H](C(=O)O)c4cc(O)cc(O)c4-c4cc3ccc4O)[C@H](O)c3ccc(c(Cl)c3)Oc3cc2cc(c3O[C@@H]2O[C@H](CO)[C@@H](O)[C@H](O)[C@H]2O[C@H]2C[C@](C)(N)[C@H](O)[C@H](C)O2)Oc2ccc(cc2Cl)[C@H]1O", "note": "[Van, vancomycin]", "activity against all eight Enterococcus or Streptococcus strains": "active"}]}]}
